Experimental data: US12398141B2 (SHANGHAI SYNERGY PHARMACEUTICAL SCIENCES CO., LTD, priority 2019, dated 2025)

How the values were obtained:
JAK3 = JAK3 (Homo sapiens (Human), UniProt P52333); assay: JAK3 LANCE Ultra kinase assay; type: biochemical; conditions: 4 uM ATP
Lewis male mice = assay: Collagen-induced rheumatoid arthritis model, clinical score; type: in vivo; design: key: 0-4 per limb by redness/deformity, max 16 per animal; conditions: clinical score 0-16 per animal, compounds 10 mg/kg twice/day, methotrexate 2 mg/kg every three days
Method: (§1) The effects of compounds H07, H12, H14, H25, H30, H39 and H44 on rheumatoid arthritis in […] were determined after long term administration by using Lewis male […] (Beijing Vital River Laboratory Animal Technology Co., Ltd.), aged 5-6 weeks and weighing […] as test animals. The anti-inflammatory pharmacodynamics characteristic of the compounds of the invention was discussed.
(§2) A certain amount of compounds were taken and dissolved in 4% Tween 80/0.5% hydroxy propyl methyl cellulose solution. A volume of intragastric administration of mice was 10 ml/kg.
(§3) Collagen type II was dissolved in 0.1M acetic acid and kept in a 4° C. refrigerator overnight at a collagen concentration of 4 mg/mL. Same volume of incomplete Freund adjuvant (Sigma, USA) was added in collagen before injection in test, which was emulsified high speed homogenizer (30000 rpm) to prepare a collagen emulsion. This procedure was carried out on ice.
(§4) Mice were immunologically injected with the collagen emulsion by two separate times for modeling on days 1 and 7 (the day before modeling was day 0). 0.1 ml of collagen emulsion prepared as above was injected intradermally into a root of tail at a single point, and 0.2 ml was injected intradermally into back at two points. The animals were subjected to clinical score and paw volume test from day 10 to day 14 after modeling. Animals successfully modeled (average clinical score≥3 points/animal) were assigned to each administration group, with each group included 10 animals. They were administrated intragastrically with above compounds or resolvents at a dosage of 10 mg/kg twice/day, and administrated intragastrically with methotrexate (2 mg/kg, Sigma, USA) every three days, until day 27. During the test, the […] were scored twice a week, and the paw volume and body weight were measured twice.
(§5) According to the different degrees of lesions (redness and joint deformation), the scores were ranged from 0 to 4 points, with the highest score of 4 points for each limb and 16 points for each animal. Scoring standards are as follows: 0, no redness; 1, slight redness on mid legs (tarsals) or ankles; 2, slight redness from ankles to mid legs (tarsals); 3, medium redness from ankles to tarsometatarsal joints; 4, severe redness from toes or fingers to ankles or wrist joints.

[1] = as above; type: in vivo, mice; design: key: 0-4 per limb by redness/deformity, max 16 per animal; conditions: clinical score 0-16 per animal, Day 0 (before modeling)
Method: as §1, §2, §3, §4, §5

hERG potassium channel = hERG potassium channel (Homo sapiens (Human), UniProt Q12809); assay: hERG potassium channel current, manual patch clamp; type: cell-based; conditions: HEK293 cells overexpressing hERG potassium channel, whole-cell patch clamp; read-out: IC50 (μM) inhibiting hERG current
hERG potassium channel, sequence (Q12809 whole entry): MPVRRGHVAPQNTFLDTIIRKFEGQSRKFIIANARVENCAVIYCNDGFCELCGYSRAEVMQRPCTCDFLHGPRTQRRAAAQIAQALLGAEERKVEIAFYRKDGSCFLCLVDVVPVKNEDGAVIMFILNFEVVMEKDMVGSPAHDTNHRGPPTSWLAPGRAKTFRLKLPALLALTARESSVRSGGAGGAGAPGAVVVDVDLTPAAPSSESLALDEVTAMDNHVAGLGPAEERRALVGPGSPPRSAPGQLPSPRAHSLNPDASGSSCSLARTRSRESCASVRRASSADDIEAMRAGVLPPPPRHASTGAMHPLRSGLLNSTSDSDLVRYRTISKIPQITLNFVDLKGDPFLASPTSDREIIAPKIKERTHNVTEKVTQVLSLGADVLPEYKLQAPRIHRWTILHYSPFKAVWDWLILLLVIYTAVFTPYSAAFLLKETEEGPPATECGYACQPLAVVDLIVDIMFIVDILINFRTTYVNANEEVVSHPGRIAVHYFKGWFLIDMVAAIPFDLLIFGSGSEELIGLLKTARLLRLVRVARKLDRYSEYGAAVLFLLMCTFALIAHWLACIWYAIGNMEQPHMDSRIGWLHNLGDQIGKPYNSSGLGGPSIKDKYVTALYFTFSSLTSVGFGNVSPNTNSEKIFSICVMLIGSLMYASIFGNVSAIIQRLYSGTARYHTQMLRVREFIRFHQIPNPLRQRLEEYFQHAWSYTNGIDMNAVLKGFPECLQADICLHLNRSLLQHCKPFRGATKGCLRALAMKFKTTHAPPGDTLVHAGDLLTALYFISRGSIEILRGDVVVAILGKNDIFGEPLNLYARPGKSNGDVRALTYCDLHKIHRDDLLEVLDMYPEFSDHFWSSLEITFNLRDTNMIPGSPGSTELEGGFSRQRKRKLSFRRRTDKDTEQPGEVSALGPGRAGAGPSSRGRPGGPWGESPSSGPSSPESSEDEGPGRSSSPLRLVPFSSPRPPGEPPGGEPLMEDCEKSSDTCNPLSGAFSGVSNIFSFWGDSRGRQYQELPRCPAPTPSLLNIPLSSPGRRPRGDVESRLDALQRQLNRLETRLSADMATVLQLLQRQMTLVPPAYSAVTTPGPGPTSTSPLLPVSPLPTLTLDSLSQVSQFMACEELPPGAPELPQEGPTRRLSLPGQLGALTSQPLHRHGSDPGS
Method: Effects of compounds H07, H12, H14, H25, H30, H39 and H44 on hERG potassium channel were detected by applying electrophysiological manual patch clamp to study an initial cardiac safety of the compounds of the invention.
Test compounds were dissolved in dimethyl sulfoxide to prepare mother solutions (10 mM, 3.3 mM, 1.1 mM and 0.37 mM). Next an extracellular fluid was used for secondary dilution so that the test solution had final concentrations of 30 μM, 10 μM, 3.3 μM, 1.1 μM and 0.37 μM.
Extracellular fluids: 130 mM sodium chloride, 4 mM potassium chloride, 1.8 mM calcium chloride, 1 mM magnesium chloride, 10 mM glucose, 10 mM 4-hydroxyethylpiperazine ethane sulfonic acid (pH 7.4)
Intracellular fluid: 130 mM potassium chloride, 1 mM magnesium chloride, 5 mM ethylene glycol diethyl ether diamine tetraacetic acid, 5 mM triphosadenine and 10 mM 4-hydroxyethylpiperazine ethane sulfonic acid (pH7.2)
Compositions of a cell culture medium: Dulbecco's modified eagle medium (Grand Turk Island Biotechnology Company, 11330032), 15% fetal calf serum (Sigma, A15-101, USA), 1% penicillin-streptomycin (Biowest, L0022-100).
HEK293 cells overexpressing hERG potassium channel (from Dr. Mohamed Boutjdir's laboratory, School of Medicine, New York University—PharmaCore Labs, Inc.) were incubated in a medium consisting of Dulbecco's modified eagle medium/15% fetal calf serum/1% penicillin-streptomycin in a 5% CO2 incubator at 37° C. In the test, the cells were transferred to a cell bath embedded into a inverted microscope platform, and extracellular fluid was perfused. After stabilization for 5 minutes, the cells were precipitated and then the test could start. Membrane currents were recorded by using HEKA EPC-10 patch clamp amplifier and […] acquisition system (HEKA Instrument Co., Ltd., D-67466 Lambrcht, Palatinate, Germany). All tests were completed at room temperature (22-24° C.). P-97 microelectrode puller (Sutter Instrument Company, Novato, […] 94949) was used to straighten the electrodes (BF150-110-10). The inner diameter of the electrode was 1-1.5 mm, and the water resistance after internal liquid filling was 2-4 MΩ.
Tests were carried out in whole-cell recording mode, with current values recorded according to the electrophysiological stimulation protocol below. First, the membrane voltage was clamped at −80 mV, and the cells were stimulated with +20 mV for two seconds to activate hERG potassium channel, which was then repolarized to −50 mV for five seconds, producing an outward tail current with a stimulation frequency of every 15 seconds. The current value was a peak value of the tail current. In the test, the channel current was recorded in the whole-cell recording mode. First, extracellular fluid (about 2 ml per minute) was perfused and recorded continuously, and then the current was allowed to stabilize (current decay (run-down) was less than 5% within 5 minutes). At this time, the peak value of the tail current was the control current value. Subsequently, the extracellular fluid containing the drug to be tested was perfused and recorded continuously until the inhibiting effect of drug on hERG current reached a stable state, at which time the peak value of the tail current was the current value after adding drugs. After a stable situation was achieved, if hERG current recovered after perfusing and washing with extracellular fluid, perfusion could be continued to test other concentrations or drugs. The solution containing the drugs to be tested was perfused in descending order of concentration and the current values were recorded. […] V2X60 (HEKA Instrument Co., Ltd., D-67466 Lambrcht, Palatinate, Germany) was used to collect data. ORANGE 8.5 (ORANGE Laboratory Company, Northampton, UK) software was used for the analysis and statistics.

JAK3, sequence (P52333 whole entry): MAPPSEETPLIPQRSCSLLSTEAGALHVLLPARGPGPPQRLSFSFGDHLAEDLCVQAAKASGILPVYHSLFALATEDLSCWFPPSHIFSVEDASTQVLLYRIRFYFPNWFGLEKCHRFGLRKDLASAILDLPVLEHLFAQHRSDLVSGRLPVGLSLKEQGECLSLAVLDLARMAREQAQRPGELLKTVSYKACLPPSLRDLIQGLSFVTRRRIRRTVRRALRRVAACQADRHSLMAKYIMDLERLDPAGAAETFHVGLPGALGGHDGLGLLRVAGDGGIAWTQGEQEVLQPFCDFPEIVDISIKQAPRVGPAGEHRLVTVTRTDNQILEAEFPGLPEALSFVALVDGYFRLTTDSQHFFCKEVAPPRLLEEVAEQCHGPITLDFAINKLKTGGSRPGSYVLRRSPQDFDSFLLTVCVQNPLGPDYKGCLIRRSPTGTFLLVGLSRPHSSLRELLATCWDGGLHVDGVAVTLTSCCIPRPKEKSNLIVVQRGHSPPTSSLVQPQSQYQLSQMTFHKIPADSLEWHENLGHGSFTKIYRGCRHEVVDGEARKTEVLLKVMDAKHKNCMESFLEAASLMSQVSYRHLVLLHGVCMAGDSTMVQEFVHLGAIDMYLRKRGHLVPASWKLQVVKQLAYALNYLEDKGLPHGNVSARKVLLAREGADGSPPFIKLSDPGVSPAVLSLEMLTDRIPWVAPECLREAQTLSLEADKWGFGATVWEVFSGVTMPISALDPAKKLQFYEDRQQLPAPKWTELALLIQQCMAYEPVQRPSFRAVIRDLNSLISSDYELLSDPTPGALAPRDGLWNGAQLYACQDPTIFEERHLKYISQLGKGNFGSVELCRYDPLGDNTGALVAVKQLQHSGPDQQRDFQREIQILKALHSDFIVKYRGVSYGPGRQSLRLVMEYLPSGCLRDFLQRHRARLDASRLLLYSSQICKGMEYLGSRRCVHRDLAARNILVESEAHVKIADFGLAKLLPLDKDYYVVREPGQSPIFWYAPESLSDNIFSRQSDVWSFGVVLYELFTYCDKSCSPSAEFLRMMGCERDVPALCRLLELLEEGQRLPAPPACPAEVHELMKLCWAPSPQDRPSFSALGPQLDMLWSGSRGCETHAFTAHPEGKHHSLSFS

Compound | IC50 (JAK3) | Score Day 13 (Lewis male mice) | Score Day 14 (Lewis male mice) | Score Day 18 (Lewis male mice) | Score Day 21 (Lewis male mice) | Score Day 25 (Lewis male mice) | Score Day 27 (Lewis male mice) | Score Day 0 [1] | IC50 (hERG potassium channel)
CN(c1c(C#N)cnc2[nH]ccc12)[C@H]1C[C@@H]2CN(C(=O)NCC(F)(F)F)C[C@@H]2C1 [Compound H22, (3aR,5s,6aS)-4-({2-[(2,2,2-trifluoroethyl)-carbamoyl]-hexahydrocyclopenta[c]pyrrole-5-yl}-methyl-amino)-1H-pyrrolo[2,3-b]pyridin-5-carbonitrile] | 58 nM | – | – | – | – | – | – | – | –
C[C@@H]1CCN(C(=O)CC#N)C[C@@H]1N(C)c1c(C#N)cnc2[nH]ccc12 [Compound H11, 4-{[(3R,4R)-1-(2-cyanoacetyl)-4-methylpiperidin-3-yl]-methyl-amino}-1H-pyrrolo[2,3-b]pyridin-5-carbonitrile] | 77 nM | – | – | – | – | – | – | – | –
CCCS(=O)(=O)N[C@H]1C[C@@H](N(C)c2c(C#N)cnc3[nH]ccc23)C1 [Compound H14, (cis)-4-{[3-(propanesulfonamido)-cyclobutyl-1-yl]-methyl-amino}-1H-pyrrolo[2,3-b]pyridin-5-carbonitrile] | 34.2 nM | 3.30 ± 0.32 | 4.10 ± 0.50 | 3.20 ± 0.73 | 3.20 ± 0.61 | 2.20 ± 0.45 | 1.10 ± 0.27 | 0.00 ± 0.00 | > 30 µM
COc1nsc(NC(=O)N2C[C@H]3C[C@H](N(C)c4c(C#N)cnc5[nH]ccc45)C[C@H]3C2)n1 [Compound H07, (3aR,5s,6aS)-4-({2-[(3-methoxy-1,2,4-thiadiazole-5-yl)carbamoyl]-hexahydrocyclopenta[c]pyrrole-5-yl}-methyl-amino)-1H-pyrrolo[2,3-b]pyridin-5-carbonitrile] | – | 3.10 ± 056 | 4.10 ± 0.41 | 3.10 ± 0.30 | 3.00 ± 0.11 | 2.00 ± 0.25 | 1.00 ± 0.17 | 0.00 ± 0.00 | > 30 µM
CN(c1c(C#N)cnc2[nH]ccc12)[C@H]1C[C@@H]2CN(C(=O)Nc3ccc(Cl)c(C(F)(F)F)c3)C[C@@H]2C1 [Compound H25, (3aR,5s,6aS)-N-(4-chloro-3-(trifluoromethyl)phenyl)-5-((5-cyano-1H-pyrrolo[2,3-b]pyridin-4-yl)(methyl)amino)hexahydrocyclopentadiene[c]pyrrole-2(1H)-carboxamide] | 58 nM | 2.90 ± 0.48 | 3.40 ± 0.27 | 2.13 ± 0.21 | 1.10 ± 0.10 | 0.93 ± 0.18 | 0.74 ± 0.34 | 0.00 ± 0.00 | > 30 µM
CN(C)c1nsc(NC(=O)N2C[C@H]3C[C@H](N(C)c4c(C#N)cnc5[nH]ccc45)C[C@H]3C2)n1 [Compound H33, (3aR,5s,6aS)-4-({2-[(3-dimethylamino-1,2,4-thiadiazole-5-yl)carbamoyl]-hexahydrocyclopenta[c]pyrrole-5-yl}-methyl-amino)-1H-pyrrolo[2,3-b]pyridin-5-carbonitrile] | 40 nM | – | – | – | – | – | – | – | –
N#Cc1cnc2[nH]ccc2c1N1CC2CN(C(=O)NCC(F)(F)F)CC21 (stereo not shown) [Compound H39, 6-(5-cyano-1H-pyrrolo[2,3-b]pyridin-4-yl)-N-(2,2,2-trifluoroethyl)-3,6-diazabicyclo[3.2.0]heptane-3-carboxamide] | 150 nM | 3.10 ± 0.44 | 4.10 ± 0.50 | 3.0 ± 0.37 | 2.33 ± 0.31 | 2.20 ± 0.52 | 1.10 ± 0.27 | 0.00 ± 0.00 | > 30 µM

Further lines, with some results ahead:

IC50 (JAK3) | Compound | Score Day 13 (Lewis male mice) | Score Day 14 (Lewis male mice) | Score Day 18 (Lewis male mice) | Score Day 21 (Lewis male mice) | Score Day 25 (Lewis male mice) | Score Day 27 (Lewis male mice) | Score Day 0 [1] | IC50 (hERG potassium channel)
80 nM | CN(c1c(C#N)cnc2[nH]ccc12)[C@H]1C[C@@H]2CN(C(=O)Nc3nc(OCC(C)(C)N)ns3)C[C@@H]2C1 [Compound H44, (3aR,5s,6aS)-5-((5-cyano-1H-pyrrolo[2,3-b]pyridin-4-yl)(methyl)amino)-N-(3-(2-amino-2-methyl-propoxy)-1,2,4-thiadiazole-5-yl)hexahydrocyclopentadiene[c]pyrrole-2(1H)-carboxamide] | 2.80 ± 0.45 | 3.40 ± 0.27 | 2.13 ± 0.21 | 1.70 ± 0.10 | 0.83 ± 0.48 | 0.64 ± 0.34 | 0.00 ± 0.00 | > 30 µM
66 nM | N#Cc1cnc2[nH]ccc2c1N[C@H]1C[C@@H](NS(=O)(=O)CCC(F)(F)F)C1 [Compound H12, (cis)-4-{[3-(3,3,3-trifluoropropanesulfonamido)-cyclobutyl-1-yl]-amino}-1H-pyrrolo[2,3-b]pyridin-5-carbonitrile] | 3.40 ± 0.39 | 3.90 ± 0.61 | 2.90 ± 0.67 | 1.23 ± 0.29 | 0.60 ± 0.17 | 0.50 ± 0.14 | 0.00 ± 0.00 | > 30 µM
244 nM | CN(c1c(C#N)cnc2[nH]ccc12)[C@H]1C[C@@H](NS(=O)(=O)CCC(F)(F)F)C1 [Compound H15, (cis)-4-{[3-(3,3,3-trifluoropropanesulfonamide)-cyclobutyl-1-yl]-methyl-amino}-1H-pyrrolo[2,3-b]pyridin-5-carbonitrile] | – | – | – | – | – | – | – | –
60 nM | COc1nsc(NC(=O)N[C@H]2C[C@@H](N(C)c3c(C#N)cnc4[nH]ccc34)C2)n1 [Compound H29, (cis)-1-(3-((5-cyano-1H-pyrrolo[2,3-b]pyridin-4-yl)(methyl)amino)cyclobutyl)-3-(3-methoxy-1,2,4-thiadiazole-5-yl)urea] | – | – | – | – | – | – | – | –
